By IC50 is commonly meant the concentration that gives 50% inhibition.

One test has as its target T1, Human plasma kallikrein (Homo sapiens, UniProt P03952).
T1 construct: yields a heavy chain (371 amino acids) and a light chain (248 amino acids); The active site of plasma kallikrein is contained in the light chain; purchased Enzyme Research Laboratories
Briefly: Plasma Kallikrein Assay. The format is biochemical. The conditions noted are these: purified Human plasma kallikrein 0.5 nM, substrate Acetyl-K-P-R-AFC, HEPES pH 7.4; read-out: PKal IC50. In outline:
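Purified human plasma kallikrein at 0.5 nM final with substrate Acetyl-K-P-R-AFC at […], in 50 mM HEPES pH 7.4, 150 mM NaCl, 5 mM CaCl2, 0.1% PEG 8000, at rt or 37° C after enzyme-inhibitor equilibration. IC50 from four-parameter logistic fit of fluorescence rate; Ki via Cheng-Prusoff.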

For a further test, the target named is human factor XIa (Homo sapiens, UniProt P03951). Kind of test: Factor XIa Assay. It counts as biochemical. The conditions noted are these: human factor XIa 0.04 nM, substrate GPR-AFC, 30 min pre-incubation, 25° C., pH 7.4; read-out: FXIa IC50.
human factor XIa, sequence (P03951 388-625 limits assumed): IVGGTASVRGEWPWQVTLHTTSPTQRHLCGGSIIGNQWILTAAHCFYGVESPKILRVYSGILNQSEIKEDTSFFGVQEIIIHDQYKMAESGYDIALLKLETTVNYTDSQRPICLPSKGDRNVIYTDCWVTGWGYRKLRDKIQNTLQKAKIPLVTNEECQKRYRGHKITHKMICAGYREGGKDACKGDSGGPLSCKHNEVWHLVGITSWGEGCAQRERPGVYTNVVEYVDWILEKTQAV
human factor XIa, sequence (P03951 19-387 partner limits assumed): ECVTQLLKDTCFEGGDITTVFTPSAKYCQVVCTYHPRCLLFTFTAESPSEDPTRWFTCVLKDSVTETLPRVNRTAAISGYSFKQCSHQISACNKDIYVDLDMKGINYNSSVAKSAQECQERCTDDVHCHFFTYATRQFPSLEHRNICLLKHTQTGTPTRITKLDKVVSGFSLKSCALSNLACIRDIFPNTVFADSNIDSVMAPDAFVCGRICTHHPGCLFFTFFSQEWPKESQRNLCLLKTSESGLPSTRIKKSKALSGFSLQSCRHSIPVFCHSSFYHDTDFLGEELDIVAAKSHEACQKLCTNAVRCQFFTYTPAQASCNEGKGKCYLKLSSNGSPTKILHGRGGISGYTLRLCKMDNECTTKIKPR

T1 sequence (P03952 391-638 limits assumed): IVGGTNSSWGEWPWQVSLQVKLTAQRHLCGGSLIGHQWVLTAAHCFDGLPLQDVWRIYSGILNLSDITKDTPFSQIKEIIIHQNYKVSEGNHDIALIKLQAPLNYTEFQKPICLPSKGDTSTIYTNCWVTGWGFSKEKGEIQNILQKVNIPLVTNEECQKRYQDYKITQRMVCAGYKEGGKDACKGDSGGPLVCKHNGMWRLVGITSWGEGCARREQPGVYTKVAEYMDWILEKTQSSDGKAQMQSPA
T1 sequence (P03952 20-390 partner limits assumed): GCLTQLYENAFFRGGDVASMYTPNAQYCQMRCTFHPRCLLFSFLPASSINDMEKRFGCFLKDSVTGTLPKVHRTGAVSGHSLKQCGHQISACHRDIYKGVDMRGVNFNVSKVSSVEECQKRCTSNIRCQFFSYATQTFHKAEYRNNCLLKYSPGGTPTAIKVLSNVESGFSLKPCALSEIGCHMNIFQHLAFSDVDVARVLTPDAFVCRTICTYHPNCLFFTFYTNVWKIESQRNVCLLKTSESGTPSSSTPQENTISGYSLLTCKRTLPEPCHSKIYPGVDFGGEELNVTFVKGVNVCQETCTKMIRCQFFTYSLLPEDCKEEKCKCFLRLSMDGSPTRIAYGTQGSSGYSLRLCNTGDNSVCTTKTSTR

For `CC1(C)CN(C(=O)c2cnn(Cc3ccccc3)c2N)C[C@]2(C1)OC(=O)Nc1ccc(Cl)c(F)c12` [Example 10, (R)-1'-(5-Amino-1-benzyl-1H-pyrazole-4-carbonyl)-6-chloro-5-fluoro-5',5'-dimethylspiro[benzo[d][1,3]oxazine-4,3'-piperidin]-2(1H)-one], the IC50 at Human plasma kallikrein came out at 1.3 nM; on human factor XIa, 122 nM.
With `Nc1c(C(=O)N2CCC[C@@]3(C2)OC(=O)Nc2ccc(Cl)c(F)c23)cnn1-c1ncccc1F` [Example 62, (R)-1'-(5-Amino-1-(3-fluoropyridin-2-y1)-1H-pyrazole-4-carbonyl)-6-chloro-5-fluorospiro[benzo[d][1,3]oxazine-4,3'-piperidin]-2(1H)-one], the IC50 was found to be 22.9 nM on Human plasma kallikrein and 855 nM at human factor XIa.
Consider `Nc1c(C(=O)N2CCC[C@@]3(C2)OC(=O)Nc2ccc(Cl)c(F)c23)cnn1CCOc1ccc(Cl)cc1` [Example 37, (R)-1'-(5-Amino-1-(2-(4-chlorophenoxy)ethyl)-1H-pyrazole-4-carbonyl)-6-chloro-5-fluorospiro[benzo[d][1,3]oxazine-4,3'-piperidin]-2(1H)-one], for which the IC50 is 10.5 nM at Human plasma kallikrein and 4600 nM at human factor XIa.
With `CC(n1ncc(C(=O)N2CCC[C@@]3(C2)OC(=O)Nc2ccc(Cl)c(F)c23)c1N)C(F)(F)F` (single isomer, unassigned) [Example 120, (R)-1'-(5-Amino-1-((R or S)-1,1,1-trifluoropropan-2-y1)-1H-pyrazole-4-carbonyl)-6-chloro-5-fluorospiro[benzo[d][1,3]oxazine-4,3'-piperidin]-2(1H)-one], the 50% inhibitory concentration (IC50) on Human plasma kallikrein amounted to 4.3 nM; at human factor XIa, 221 nM.
In the case of `Nc1c(C(=O)N2CCC[C@@]3(C2)OC(=O)Nc2ccc(Cl)c(F)c23)cnn1-c1ccc(N2CCOC2=O)cc1` [Example 75, (R)-1'-(5-Amino-1-(4-(2-oxooxazolidin-3-yl)phenyl)-1H-pyrazole-4-carbonyl)-6-chloro-5-fluorospiro[benzo[d][1,3]oxazine-4,3'-piperidin]-2(1H)-one], the values for the IC50 on Human plasma kallikrein and on human factor XIa were 50.7 nM and 4720 nM, respectively.
With `Nc1c(C(=O)N2CCC[C@@]3(C2)OC(=O)Nc2ccc(Cl)c(F)c23)cnn1CC1(F)CC1` [Example 29, (R)-1'-(5-Amino-1-((1-fluorocyclopropyl)methyl)-1H-pyrazole-4-carbonyl)-6-chloro-5-fluorospiro[benzo[d][1,3]oxazine-4,3'-piperidin]-2(1H)-one], the IC50 was 7.9 nM on Human plasma kallikrein and 705 nM on human factor XIa.
In the case of `COc1cccnc1-n1ncc(C(=O)N2CCC[C@@]3(C2)OC(=O)Nc2ccc(Cl)c(F)c23)c1N` [Example 108, (R)-1'-(5-Amino-1-(3-methoxypyridin-2-y1)-1H-pyrazole-4-carbonyl)-6-chloro-5-fluorospiro[benzo[d][1,3]oxazine-4,3'-piperidin]-2(1H)-one], the IC50 worked out at 39.6 nM on Human plasma kallikrein and 1690 nM at human factor XIa.
With `CCOC(=O)c1ccc(C)c(-n2ncc(C(=O)N3CCC[C@@]4(C3)OC(=O)Nc3ccc(Cl)c(F)c34)c2N)c1` [Example 70, Ethyl (R)-3-(5-amino-4-(6-chloro-5-fluoro-2-oxo-1,2-dihydrospiro[benzo[d][1,3]oxazine-4,3'-piperidine]-1'-carbonyl)-1H-pyrazol-1-y1)-4-methylbenzoate], the results for the IC50 on Human plasma kallikrein and on human factor XIa were 13.4 nM and 1140 nM, respectively.
For the compound `Cc1cnccc1-n1ncc(C(=O)N2CCC[C@@]3(C2)OC(=O)Nc2ccc(Cl)c(F)c23)c1N` [Example 105, (R)-1'-(5-Amino-1-(3-methylpyridin-4-y1)-1H-pyrazole-4-carbony1)-6-chloro-5-fluorospiro[benzo[d][1,3]oxazine-4,3'-piperidin]-2(1H)-one], the IC50 stood at 13.2 nM at Human plasma kallikrein and 421 nM on human factor XIa.
Regarding `CCC(n1ncc(C(=O)N2CC(C)(C)C[C@@]3(C2)OC(=O)Nc2ccc(Cl)c(F)c23)c1N)C(F)(F)F` (single isomer, unassigned) [Example 130, (R)-1'-(5-Amino-1-((R or S)-1,1,1-trifluorobutan-2-y1)-1H-pyrazole-4-carbonyl)-6-chloro-5-fluoro-5',5'-dimethylspiro[benzo[d][1,3]oxazine-4,3'-piperidin]-2(1H)-one], the values for the IC50 at Human plasma kallikrein and at human factor XIa were 1.6 nM and 8 nM, respectively.
With `Nc1c(C(=O)N2CCC[C@@]3(C2)OC(=O)Nc2ccc(Cl)c(F)c23)cnn1C1Cc2ccccc2C1` [Example 38, (R)-1'-(5-Amino-1-(2,3-dihydro-1H-inden-2-yl)-1H-pyrazole-4-carbonyl)-6-chloro-5-fluorospiro[benzo[d][1,3]oxazine-4,3'-piperidin]-2(1H)-one], the IC50 at Human plasma kallikrein came to 2.4 nM; at human factor XIa, 449 nM.
On the same counts, the results for `CCC(C1CCOCC1)n1ncc(C(=O)N2CCC[C@@]3(C2)OC(=O)Nc2ccc(Cl)c(F)c23)c1N` (single isomer, unassigned) [Example 112, (R)-1'-(5-Amino-1-((R or S)-1-(tetrahydro-2H-pyran-4-yl)propyl)-1H-pyrazole-4-carbonyl)-6-chloro-5-fluorospiro[benzo[d][1,3]oxazine-4,3'-piperidin]-2(1H)-one] are 2.2 nM and 62 nM.
`Cc1ccc(Cn2ncc(C(=O)N3CCC[C@@]4(C3)OC(=O)Nc3ccc(Cl)c(F)c34)c2N)cc1` [Example 7, (R)-1'-(5-Amino-1-(4-methylbenzyl)-1H-pyrazole-4-carbonyl)-6-chloro-5-fluorospiro[benzo[d][1,3]oxazine-4,3'-piperidin]-2(1H)-one]: the IC50 on Human plasma kallikrein came to 0.5 nM; at human factor XIa it was 201 nM.
As for `Cc1ccc(-n2ncc(C(=O)N3CCC[C@@]4(C3)OC(=O)Nc3ccc(Cl)c(F)c34)c2N)c(F)c1` [Example 66, (R)-1'-(5-Amino-1-(2-fluoro-4-methylpheny1)-1H-pyrazole-4-carbonyl)-6-chloro-5-fluorospiro[benzo[d][1,3]oxazine-4,3'-piperidin]-2(1H)-one], the IC50 at Human plasma kallikrein turned out to be 39 nM; on human factor XIa, 242 nM.
Regarding `Nc1c(C(=O)N2CCC[C@@]3(C2)OC(=O)Nc2ccc(Cl)c(F)c23)cnn1-c1cc(F)ccc1F` [Example 76, (R)-1'-(5-Amino-1-(2,5-difluorophenyl)-1H-pyrazole-4-carbonyl)-6-chloro-5-fluorospiro[benzo[d][1,3]oxazine-4,3'-piperidin]-2(1H)-one], the IC50 amounted to 29.5 nM on Human plasma kallikrein and 1060 nM on human factor XIa.
Consider `CC(C)(C)n1ncc(C(=O)N2CCC[C@@]3(C2)OC(=O)Nc2ccc(Cl)c(F)c23)c1N` [Example 23, (R)-1'-(5-Amino-1-(tert-butyl)-1H-pyrazole-4-carbonyl)-6-chloro-5-fluorospiro[benzo[d][1,3]oxazine-4,3'-piperidin]-2(1H)-one], for which the IC50 worked out at 13.5 nM at Human plasma kallikrein and 2250 nM at human factor XIa.
As to `Nc1c(C(=O)N2CCC[C@@]3(C2)OC(=O)Nc2ccc(Cl)c(F)c23)cnn1-c1ccccc1OC1CCC1` [Example 97, (R)-1'-(5-Amino-1-(2-cyclobutoxyphenyl)-1H-pyrazole-4-carbonyl)-6-chloro-5-fluorospiro[benzo[d][1,3]oxazine-4,3'-piperidin]-2(1H)-one], the IC50 was found to be 8 nM at Human plasma kallikrein and 1290 nM on human factor XIa.

Source of the values: patent US12679848B2, “Plasma kallikrein inhibitors” (Merck Sharp & Dohme LLC, priority 2020, dated 2026).
